These results are taken from PubChem BioAssay (NCI).

“And” between values parts separate entries of the source, which are not always exact repeats. Identical values can stand only once.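 1) Cells in 96-well plates. 2) Compound, 48 h, 5 concentrations. 3) Linear interpolation between surrounding doses. 4) Unreached endpoint = highest concentration. GI50 marks 50% less growth. TGI marks complete inhibition of growth.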 Some results are limits rather than exact numbers.

Some test systems named below: KM20L2 colon; SNB-78 CNS; LXFL 529 NSCLC; XF 498 CNS; DMS 273 small cell lung; P388/ADR leukemia; P388 leukemia; SN12K1 renal; RXF-631 renal.
Holding throughout (assay): NCI tumour cell line growth inhibition, 48 h

For `CCCc1ccc(NCc2cc(OC)c(OC)c(OC)c2)cc1`, the TGI in the experiment with KM20L2 colon is over 100 µM; in the experiment on SNB-78 CNS, over 100 µM; with LXFL 529 NSCLC it was 40.5 µM; with XF 498 CNS it was 52.8 µM; in the experiment on DMS 273 small cell lung it was 31.8 µM. Besides, the GI50 in the experiment with DMS 273 small cell lung was 16.2 µM.

As for `[N-]=[N+]=C1C(=O)C2CC3CC(C2)CC1C3`, the TGI with KM20L2 colon, in the experiment with SNB-78 CNS, in the experiment with LXFL 529 NSCLC, in the experiment with XF 498 CNS and in the experiment on DMS 273 small cell lung was over 100 µM each time.

On to `COc1cc(/C=C(/C#N)C(N)=O)ccc1O`, for which the TGI in the experiment on KM20L2 colon, in the experiment with SNB-78 CNS, in the experiment on P388/ADR leukemia, in the experiment on P388 leukemia, in the experiment on SN12K1 renal and in the experiment on XF 498 CNS was over 100 µM each time. Besides, the TGI in the experiment on DMS 273 small cell lung was over 100 µM.

With `CC(NC(C)(C)C)C(=O)c1cccc(Cl)c1` (centres undefined), the TGI in the experiment with KM20L2 colon, with RXF-631 renal, in the experiment on LXFL 529 NSCLC, in the experiment on XF 498 CNS and in the experiment with DMS 273 small cell lung was over 100 µM each time.

As for `N#C/C(=C\c1c[nH]c2ccccc12)C(=O)c1ccc(O)c(O)c1`, the TGI in the experiment with KM20L2 colon, in the experiment on LXFL 529 NSCLC, with XF 498 CNS and in the experiment on DMS 273 small cell lung was over 100 µM in each case.

In the case of `COc1cc2c(cc1OC)C1(c3ccc(Cl)cc3)ON=C(c3ccccc3)N1CS2` (centres undefined), the TGI in the experiment on KM20L2 colon, in the experiment on SNB-78 CNS, with RXF-631 renal, in the experiment with LXFL 529 NSCLC and in the experiment on DMS 273 small cell lung was over 100 µM throughout.

In the case of `CCOC(=O)CSc1nnc(C(Sc2nc(-c3ccccc3)c(-c3ccccc3)[nH]2)C(C)C)n1-c1ccccc1` (centres undefined), the TGI with KM20L2 colon, in the experiment with SNB-78 CNS, in the experiment on LXFL 529 NSCLC and with DMS 273 small cell lung was over 10 µM throughout.

Take `COC(=O)CC1NC(=O)C1C1(C)OCCO1` (centres undefined): the TGI in the experiment with KM20L2 colon, in the experiment on LXFL 529 NSCLC, with XF 498 CNS and in the experiment with DMS 273 small cell lung was over 100 µM throughout.

For `COc1cc(-c2cc(-c3cc([N+](=O)[O-])c(/C=N/NC(=O)c4ccncc4)o3)ccc2OC)ccc1C`, the TGI with KM20L2 colon, in the experiment with RXF-631 renal, in the experiment on LXFL 529 NSCLC and in the experiment with XF 498 CNS was over 100 µM each time.

For `O=C(N/N=C/c1cc(Cl)cc(Cl)c1O)c1ccccc1O`, the GI50 in the experiment on KM20L2 colon was 4.85 µM.

As to `C/C1=C\[C@@H](O)C(=O)/C=C/C=C\c2csc(n2)[C@@H](C)NC(=O)C[C@@]2(CC1)S(=O)SC(=O)[C@]2(C)O` (some centres undefined), the TGI in the experiment on KM20L2 colon is 0.636 µM and 0.599 µM; with SNB-78 CNS, 0.0589 µM; in the experiment on LXFL 529 NSCLC, 0.0333 µM and 0.0187 µM; in the experiment on DMS 273 small cell lung, 0.106 µM.
